Measured values published in patent US20160101194A1, “SMART® Medication Adherence Formulation, Method, Device and System for Topical, Vaginal or Rectal Routes of Administration” (University of Florida Research Foundation, Incorporated, priority 2013, published 2016).

Key:
[1] = after oral dosing
Description: Data shown are mean±SD. *, P<0.05 for a given time point compared to time point 0 min. The arrow denotes time of capsule ingestion. Concentrations less than the level of 1.0 parts-per-billion (ppb) are noted as “<LOD”.

[2] = 40 mg rectal in 3 mL HEC gel
Description: The entire contents of the syringe were applied rectally as a bolus. Breath acetone and 2-butanone levels were monitored throughout the experiment by delivering single full breath samples directly into the modified ESI source. Two baseline breath samples were taken immediately prior to application and then at 1-3 min intervals thereafter. The ESI source was operated in positive ion mode. A 0.2% NH4OH:water mobile phase was introduced into the source at a flow rate of 0.1 mL/min during sampling to produce ammonium adducts of the analytes of interest.

[3] = after vaginal administration with gel; cited from earlier work
[4] = Breath kinetics of exhaled d6-acetone after oral ingestion of d8-isopropanol; assay type: in vivo; settings: post-ingestion
Description: Either 100 mg d8-isopropanol or 20 mg d8 isopropanol was delivered orally. For oral dosing, 100 or 20 mg of neat d8-isopropanol were placed in a size 4 licap and the licap was swallowed along with 60-100 mL of water. Following administration of d8-isopropanol, exhaled breath was monitored in real time for the presence of d6-acetone and d7-isopropanol using the Orbitrap LCMS.
(§1) Following application or ingestion, d6-acetone and d7-isopropanol levels were monitored in exhaled breath samples using the LTQ-LCMS. Single full breath samples were administered directly into the modified ESI source at 5 min intervals for ˜4 hours. The ESI source was operated in positive ion mode.

[5] = Breath kinetics of exhaled d6-acetone after topical application of d8-isopropanol in carbomer gel; assay type: in vivo; settings: 240 mg transdermal in carbomer gel, post application; maximum still not achieved
Description: 240 mg of d8-isopropanol was mixed with 3 mL of a carbomer-based aloe gel. This gel was applied to an approximately 20 cm^2 area of the inner left forearm and covered with a Tagaderm occlusive dressing. To further reduce the permeability of the dressing, the transparent section was covered with a small section of teldar polymer prior to use.
as §1

Compound: CCC(C)O (stereo not shown) [2-butanol]
- 2-butanone concentration in breath [1]: 500-1,000 ppb
- time to appearance of 2-butanone in breath [2]: 2 to 3 min

Compound: CCC(C)OC(C)=O (stereo not shown) [2-butyl acetate]
- parent ester and metabolites observed in breath [3]: observed in breath

Compound: CCCC(C)OC(C)=O (stereo not shown) [2-pentyl acetate]
- parent ester and metabolites observed in breath [3]: observed in breath

Compound: [2H]OC([2H])(C([2H])([2H])[2H])C([2H])([2H])[2H] [d8-IPA, d8-isopropanol]
- time by which D6-acetone levels in exhaled breath began to level out ([4]; 20 mg oral): ≤ 15 min
- time by which D6-acetone levels in exhaled breath began to level out ([4]; 100 mg oral): ≤ 15 min
- time to maximum concentration of d-6 acetone in exhaled breath [5]: > 200 min
